Drawing on patent US5529998A, “Benzoxazolyl- and benzothiazolyloxazolidinones” (Bayer Aktiengesellschaft, priority 1994, dated 1996), this text covers MIC for seven compounds.

What all share (assay): MIC, antibacterial activity (series dilution)
Assay type in all cases: cell-based

One test relates to Staph. 133. Particulars: 37° C., about 20 hours. The method, then:
(§1) The MIC values were determined with the aid of the microdilution method in BH medium. Each test substance was dissolved in the nutrient medium. A concentration series of the test substances was prepared in the microtiter plate by serial dilution. Overnight cultures of the pathogens, which were first diluted 1:250 in the nutrient medium, were used for the inoculation. 100 μl portions of inoculation solution were added to 100 μl of the dilute nutrient solutions containing the active compound. The microtiter plates were incubated at 37° C. and read off after about 20 hours. The MIC value (μg/ml) indicates the lowest concentration of active compound at which no growth was detectable. The minimum inhibitory concentrations (MIC) were determined by the series dilution method on Iso-Sensitest agar (Oxoid). A series of agar plates which contained concentrations of the active compound which decreased by two-fold dilution each time was prepared for each test substance. The agar plates were inoculated with a multipoint inoculator (Denley). Overnight cultures of the pathogens which had been diluted beforehand such that each inoculation point contained about 10^4 colony-forming particles were used for the inoculation. The inoculated agar plates were incubated at 37° C. and the germ growth was read off up to about 20 hours. The MIC value (μg/ml) indicates the lowest concentration of active compound at which no growth was detectable with the naked eye.

Another test concerns Klebs. 57 USA. Particulars: 37° C., about 20 hours. The method, then:
as §1

The next test relates to Staph. 9TV. The settings on record: 37° C., about 20 hours. How it is done: as §1
The test system of another test is Psdm. Bonn. Particulars: 37° C., about 20 hours. How it is done: as §1
The next test relates to Staph. 48N. The settings on record: 37° C., about 20 hours. How it is done: as §1
For a further test, the system named is Staph 25701. Particulars: 37° C., about 20 hours. How it is done:
as §1

For the next test, the system named is E. coli Neumann. Particulars: Escherichia coli, 37° C., about 20 hours. How it is done:
as §1

One may read the MIC as the lowest concentration that inhibits growth of the organism. A lower MIC goes with a more susceptible organism.

Values after ≈ are worked out from the molar mass of the structure shown. Some results are limits rather than exact numbers.

`CSc1nc2ccc(N3C[C@H](CNC(C)=O)OC3=O)cc2s1` [Example 24, (5S )-3-(2-Methylthio-benzo[4,5-d]thiazol-6-yl)-5-acetylaminomethyl-oxazolidin-2-one]: the MIC in the test on Staph. 133 was 2 µg/mL (≈ 5.93 µM); in the test with Klebs. 57 USA it was above 64 µg/mL; in the test with Staph. 9TV, 0.25 µg/mL (≈ 0.741 µM); with Psdm. Bonn, above 64 µg/mL; with Staph. 48N, 1 µg/mL (≈ 2.96 µM); in the test on Staph 25701, 0.25 µg/mL (≈ 0.741 µM). The compound also came in with an MIC with E. coli Neumann above 64 µg/mL.

With `CC(=O)NC[C@H]1CN(c2ccc3nc(C)oc3c2)C(=O)O1` [Example 25, (5S)-3-(2-Methyl-benzo[4,5-d]oxazol-6-yl)-5-acetamino-methyl-oxazolidin-2-one], the MIC against Staph. 133 was 2 µg/mL (≈ 6.91 µM); against Klebs. 57 USA, above 64 µg/mL; against Staph. 9TV, 1 µg/mL (≈ 3.46 µM); against Psdm. Bonn, above 64 µg/mL; in the test with Staph. 48N, 1 µg/mL (≈ 3.46 µM); against Staph 25701, 1 µg/mL (≈ 3.46 µM). For the same compound, in the test with E. coli Neumann, the minimal inhibitory concentration (MIC) is above 64 µg/mL.

`CC(=O)NC[C@H]1CN(c2ccc3nc(C)sc3c2)C(=O)O1` [Example 26]: the MIC was 2 µg/mL (≈ 6.55 µM) with Staph. 133; above 64 µg/mL in the test on Klebs. 57 USA; 1 µg/mL (≈ 3.27 µM) against Staph. 9TV; above 64 µg/mL with Psdm. Bonn; 1 µg/mL (≈ 3.27 µM) in the test on Staph. 48N; 1 µg/mL (≈ 3.27 µM) in the test on Staph 25701. In the test with E. coli Neumann, this compound came in with an MIC above 64 µg/mL.

Take `CC(=O)NC[C@H]1CN(c2ccc3nc([S+](C)[O-])sc3c2)C(=O)O1` (stereo partly drawn) [Example 32, (5S)-3-(2-Methylsulphinyl-benzo[4,5-d]-thiazol-6-yl)-5-acetylaminomethyl-oxazolidin-2-one]: the MIC with Staph. 133 was 1 µg/mL (≈ 2.83 µM); with Klebs. 57 USA, above 64 µg/mL; against Staph. 9TV it was 0.5 µg/mL (≈ 1.41 µM); in the test with Psdm. Bonn it was above 64 µg/mL; against Staph. 48N, 2 µg/mL (≈ 5.66 µM); against Staph 25701, 1 µg/mL (≈ 2.83 µM). This compound yielded a minimal inhibitory concentration (MIC) against E. coli Neumann above 64 µg/mL.

As to `CC(=O)NC[C@H]1CN(c2ccc3nc(S(=O)(=O)Cc4ccccc4)sc3c2)C(=O)O1` [Example 33, (5S)-3-(2-Benzylsulphonyl-benzo[4,5-d]thiazol-6-yl)-5-acetylaminomethyloxazolidin-2-one], the MIC in the test with Staph. 133 was 4 µg/mL (≈ 8.98 µM); with Klebs. 57 USA, above 64 µg/mL; in the test with Staph. 9TV, 4 µg/mL (≈ 8.98 µM); in the test on Psdm. Bonn it was above 64 µg/mL; against Staph. 48N, 2 µg/mL (≈ 4.49 µM); against Staph 25701 it was 2 µg/mL (≈ 4.49 µM). For the same compound, the MIC in the test on E. coli Neumann was above 64 µg/mL.

In the case of `CC(=O)NC[C@H]1CN(c2ccc3nc([S+]([O-])Cc4ccccc4)sc3c2)C(=O)O1` (stereo partly shown) [Example 36], the MIC was 4 µg/mL (≈ 9.31 µM) against Staph. 133; above 64 µg/mL against Klebs. 57 USA; 2 µg/mL (≈ 4.66 µM) in the test with Staph. 9TV; above 64 µg/mL against Psdm. Bonn; 4 µg/mL (≈ 9.31 µM) in the test with Staph. 48N; 4 µg/mL (≈ 9.31 µM) against Staph 25701. For the same compound, in the test on E. coli Neumann, the MIC is above 64 µg/mL.

Consider `CC(=O)NC[C@H]1CN(c2ccc3nc(S(C)(=O)=O)sc3c2)C(=O)O1` [Example 37], for which the MIC in the test with Staph. 133 was 2 µg/mL (≈ 5.41 µM); with Klebs. 57 USA, above 64 µg/mL; against Staph. 9TV, 1 µg/mL (≈ 2.71 µM); with Psdm. Bonn, above 64 µg/mL; in the test on Staph. 48N, 2 µg/mL (≈ 5.41 µM); in the test with Staph 25701, 1 µg/mL (≈ 2.71 µM). For the same compound, the MIC against E. coli Neumann was above 64 µg/mL.
